Our source for the IC50 and Ratio IC50 values is ChEMBL document CHEMBL3580636, “Discovery of a Potent Class of PI3Kα Inhibitors with Unique Binding Mode via Encoded Library Technology (ELT)” (ACS Med Chem Lett, 2015).

Assay [1] has as its target Phosphatidylinositol 4,5-bisphosphate 3-kinase catalytic subunit alpha isoform (Homo sapiens, UniProt P42336). Kind of assay: Inhibition of wild type his-tagged PI3Kalpha (unknown origin).
The target of assay [2] is Phosphatidylinositol 4,5-bisphosphate 3-kinase catalytic subunit alpha isoform (Homo sapiens, UniProt P42336, H1047R). The experiment in a line: Inhibition of PI3Kalpha H1047R mutant (unknown origin).
Sequence of Phosphatidylinositol 4,5-bisphosphate 3-kinase catalytic subunit alpha isoform (Homo sapiens, UniProt P42336, H1047R) (P42336 whole entry H1047R, canonical isoform): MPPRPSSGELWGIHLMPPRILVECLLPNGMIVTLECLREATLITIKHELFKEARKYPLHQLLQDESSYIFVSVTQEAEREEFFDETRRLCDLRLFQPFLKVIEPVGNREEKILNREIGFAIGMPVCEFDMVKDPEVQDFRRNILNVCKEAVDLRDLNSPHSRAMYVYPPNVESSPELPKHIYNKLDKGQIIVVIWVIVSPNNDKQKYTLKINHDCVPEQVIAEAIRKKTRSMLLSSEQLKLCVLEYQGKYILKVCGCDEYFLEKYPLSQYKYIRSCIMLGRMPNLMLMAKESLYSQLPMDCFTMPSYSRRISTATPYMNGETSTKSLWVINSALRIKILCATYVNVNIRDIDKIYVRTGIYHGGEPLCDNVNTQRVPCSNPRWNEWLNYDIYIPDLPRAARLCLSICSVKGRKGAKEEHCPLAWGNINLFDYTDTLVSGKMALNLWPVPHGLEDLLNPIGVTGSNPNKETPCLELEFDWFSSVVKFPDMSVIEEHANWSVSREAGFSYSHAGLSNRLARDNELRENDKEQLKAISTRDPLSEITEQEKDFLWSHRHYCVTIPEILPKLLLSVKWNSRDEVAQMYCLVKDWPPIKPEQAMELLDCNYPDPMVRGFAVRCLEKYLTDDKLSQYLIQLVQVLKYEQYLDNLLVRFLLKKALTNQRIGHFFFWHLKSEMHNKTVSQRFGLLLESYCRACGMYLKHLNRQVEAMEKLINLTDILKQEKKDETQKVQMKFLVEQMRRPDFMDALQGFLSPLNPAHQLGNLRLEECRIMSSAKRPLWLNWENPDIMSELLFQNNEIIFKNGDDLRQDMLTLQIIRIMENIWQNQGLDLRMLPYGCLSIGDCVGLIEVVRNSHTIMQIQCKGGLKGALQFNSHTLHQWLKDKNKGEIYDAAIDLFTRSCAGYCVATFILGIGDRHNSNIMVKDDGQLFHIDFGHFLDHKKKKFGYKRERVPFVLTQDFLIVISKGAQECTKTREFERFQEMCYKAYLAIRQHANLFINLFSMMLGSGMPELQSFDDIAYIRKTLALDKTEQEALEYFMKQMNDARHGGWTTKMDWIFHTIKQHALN
Assay [3] concerns the target Phosphatidylinositol 4,5-bisphosphate 3-kinase catalytic subunit beta isoform (Homo sapiens, UniProt P42338). Kind of assay: Inhibition of PI3Kbeta (unknown origin).
Assay [4] addresses T1, Phosphatidylinositol 4,5-bisphosphate 3-kinase catalytic subunit delta isoform (Homo sapiens, UniProt O00329).
T1 sequence (O00329 whole entry): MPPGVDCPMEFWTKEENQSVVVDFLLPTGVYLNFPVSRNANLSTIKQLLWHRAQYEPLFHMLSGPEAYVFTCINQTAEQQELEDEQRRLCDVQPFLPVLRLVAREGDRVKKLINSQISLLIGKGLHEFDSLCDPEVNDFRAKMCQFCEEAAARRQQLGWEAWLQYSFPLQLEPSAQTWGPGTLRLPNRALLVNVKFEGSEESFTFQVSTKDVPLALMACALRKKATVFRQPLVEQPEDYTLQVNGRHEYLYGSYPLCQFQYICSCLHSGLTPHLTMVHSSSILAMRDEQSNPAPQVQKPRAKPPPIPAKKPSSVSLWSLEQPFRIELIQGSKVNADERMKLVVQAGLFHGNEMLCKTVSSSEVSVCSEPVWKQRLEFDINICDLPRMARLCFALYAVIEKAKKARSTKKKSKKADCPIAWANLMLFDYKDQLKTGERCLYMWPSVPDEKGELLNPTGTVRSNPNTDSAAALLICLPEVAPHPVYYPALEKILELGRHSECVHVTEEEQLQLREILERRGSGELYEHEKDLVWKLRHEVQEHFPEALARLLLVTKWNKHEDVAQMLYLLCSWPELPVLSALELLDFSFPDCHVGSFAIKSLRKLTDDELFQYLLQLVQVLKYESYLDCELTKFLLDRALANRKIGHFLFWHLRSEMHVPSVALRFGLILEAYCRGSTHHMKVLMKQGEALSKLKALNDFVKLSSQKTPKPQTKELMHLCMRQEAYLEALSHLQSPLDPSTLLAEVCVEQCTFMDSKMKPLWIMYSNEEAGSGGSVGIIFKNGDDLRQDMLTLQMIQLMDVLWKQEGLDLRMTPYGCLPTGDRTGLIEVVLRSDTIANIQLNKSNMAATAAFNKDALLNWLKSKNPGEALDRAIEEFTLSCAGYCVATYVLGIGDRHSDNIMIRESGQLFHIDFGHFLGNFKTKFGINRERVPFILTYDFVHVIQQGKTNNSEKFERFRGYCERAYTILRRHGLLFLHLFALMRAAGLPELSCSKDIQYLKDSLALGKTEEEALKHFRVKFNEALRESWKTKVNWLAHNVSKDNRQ
The experiment in a line: Inhibition of PI3Kdelta (unknown origin).

The target in assay [5] is Phosphatidylinositol 4,5-bisphosphate 3-kinase catalytic subunit gamma isoform (Homo sapiens, UniProt P48736). The experiment in a line: Inhibition of PI3Kgamma (unknown origin).
Sequence of Phosphatidylinositol 4,5-bisphosphate 3-kinase catalytic subunit gamma isoform (P48736 whole entry, canonical isoform): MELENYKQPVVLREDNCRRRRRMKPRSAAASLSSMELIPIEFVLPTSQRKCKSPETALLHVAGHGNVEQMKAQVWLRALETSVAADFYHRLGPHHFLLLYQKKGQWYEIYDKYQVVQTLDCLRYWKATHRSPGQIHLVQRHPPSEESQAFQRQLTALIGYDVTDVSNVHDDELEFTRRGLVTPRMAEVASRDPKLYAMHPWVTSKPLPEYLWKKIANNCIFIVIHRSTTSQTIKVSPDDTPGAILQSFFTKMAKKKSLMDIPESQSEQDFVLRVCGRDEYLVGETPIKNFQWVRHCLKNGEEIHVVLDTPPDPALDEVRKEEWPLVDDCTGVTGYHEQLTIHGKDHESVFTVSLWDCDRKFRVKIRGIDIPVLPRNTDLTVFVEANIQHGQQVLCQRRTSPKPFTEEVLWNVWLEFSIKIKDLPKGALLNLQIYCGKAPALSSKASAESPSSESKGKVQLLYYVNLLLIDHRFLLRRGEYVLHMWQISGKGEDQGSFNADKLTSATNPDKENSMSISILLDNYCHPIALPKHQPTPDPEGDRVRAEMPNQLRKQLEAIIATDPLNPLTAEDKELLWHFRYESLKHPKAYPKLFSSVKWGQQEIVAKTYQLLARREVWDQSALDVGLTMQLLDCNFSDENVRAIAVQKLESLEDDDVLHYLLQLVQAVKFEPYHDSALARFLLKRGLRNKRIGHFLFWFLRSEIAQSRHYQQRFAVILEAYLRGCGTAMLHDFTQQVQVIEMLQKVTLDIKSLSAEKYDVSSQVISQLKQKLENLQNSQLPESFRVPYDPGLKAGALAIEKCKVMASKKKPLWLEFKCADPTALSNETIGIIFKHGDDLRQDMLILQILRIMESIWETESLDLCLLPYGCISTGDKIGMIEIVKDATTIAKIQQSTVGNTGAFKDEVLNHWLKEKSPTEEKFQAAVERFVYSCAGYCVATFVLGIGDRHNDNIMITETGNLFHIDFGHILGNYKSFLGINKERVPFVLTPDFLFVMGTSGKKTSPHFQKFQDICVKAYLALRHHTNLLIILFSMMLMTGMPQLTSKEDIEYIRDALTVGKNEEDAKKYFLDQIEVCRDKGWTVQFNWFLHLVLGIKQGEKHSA
The species named for assay [6] is Homo sapiens. The experiment in a line: Selectivity ratio of IC50 for PI3Kbeta (unknown origin) to IC50 for wild type his-tagged PI3Kalpha (unknown origin).
The species named for assay [7] is Homo sapiens. The experiment in a line: Selectivity ratio of IC50 for PI3Kdelta (unknown origin) to IC50 for wild type his-tagged PI3Kalpha (unknown origin).

Sequence of Phosphatidylinositol 4,5-bisphosphate 3-kinase catalytic subunit alpha isoform (Homo sapiens, UniProt P42336) (P42336 whole entry, canonical isoform): as the sequence (P42336 whole entry H1047R, canonical isoform) above, with R1047H counted along it
Sequence of Phosphatidylinositol 4,5-bisphosphate 3-kinase catalytic subunit beta isoform (P42338 whole entry, canonical isoform): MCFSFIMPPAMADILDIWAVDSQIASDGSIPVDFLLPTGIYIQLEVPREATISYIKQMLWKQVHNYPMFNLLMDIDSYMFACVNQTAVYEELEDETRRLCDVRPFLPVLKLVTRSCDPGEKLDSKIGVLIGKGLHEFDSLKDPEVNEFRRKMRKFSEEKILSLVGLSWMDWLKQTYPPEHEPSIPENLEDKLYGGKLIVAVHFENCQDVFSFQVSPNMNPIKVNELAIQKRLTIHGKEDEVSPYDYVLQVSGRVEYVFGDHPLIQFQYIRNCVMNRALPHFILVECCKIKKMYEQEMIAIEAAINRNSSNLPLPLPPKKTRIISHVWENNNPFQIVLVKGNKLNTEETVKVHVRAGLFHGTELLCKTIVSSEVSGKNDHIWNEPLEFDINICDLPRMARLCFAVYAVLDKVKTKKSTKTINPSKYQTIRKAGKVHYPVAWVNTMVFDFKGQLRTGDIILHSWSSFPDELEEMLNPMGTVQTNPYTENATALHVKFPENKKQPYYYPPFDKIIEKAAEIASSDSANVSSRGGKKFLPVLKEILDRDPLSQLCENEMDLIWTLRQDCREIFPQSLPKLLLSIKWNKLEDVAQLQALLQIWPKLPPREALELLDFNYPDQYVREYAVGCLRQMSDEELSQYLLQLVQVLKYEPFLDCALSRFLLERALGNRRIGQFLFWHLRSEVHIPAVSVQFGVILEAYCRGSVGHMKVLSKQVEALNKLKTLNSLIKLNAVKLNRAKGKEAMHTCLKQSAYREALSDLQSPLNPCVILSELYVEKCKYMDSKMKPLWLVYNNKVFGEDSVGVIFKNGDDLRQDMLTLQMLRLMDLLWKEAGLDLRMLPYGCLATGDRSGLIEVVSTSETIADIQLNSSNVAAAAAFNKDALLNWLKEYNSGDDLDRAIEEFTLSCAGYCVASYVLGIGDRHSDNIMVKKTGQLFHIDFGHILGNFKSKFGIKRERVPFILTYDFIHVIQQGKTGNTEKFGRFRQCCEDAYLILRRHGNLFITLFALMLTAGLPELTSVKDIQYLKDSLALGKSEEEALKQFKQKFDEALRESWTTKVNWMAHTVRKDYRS

For `COC(=O)c1cc(CNc2ccc(S(=O)(=O)Nc3nnc(C)s3)cc2)cc(-c2ccc(OC)nc2)c1`, the IC50 in assay [1] came to 46 nM; in assay [2] it was 30 nM.
With `Cc1nnc(NS(=O)(=O)c2ccc(NCc3cc(C(=O)O)cc(-c4ccc5c(c4)OCCO5)c3)cc2)s1`, the IC50 is 12.6 nM in assay [1], 126 nM in assay [3], 63.1 nM in assay [4] and 2 nM in assay [5]. In addition, the Ratio IC50 in the assay listed under Homo sapiens [6] and in the assay filed under Homo sapiens [7] was 5 each time.
As to `COc1ccc(-c2cccc(CNc3ccc(S(=O)(=O)Nc4nnc(C)s4)cc3)c2)cn1`, the IC50 in assay [1] is 102 nM; in assay [3], 765 nM; in assay [4], 44 nM; in assay [5], 52 nM.
With `COc1ccc(-c2cc(CNc3ccc(S(=O)(=O)Nc4nnc(C)s4)cc3)cc(C(=O)O)c2)cn1`, the IC50 in assay [1] was determined as 10 nM; in assay [2], 8.5 nM; in assay [3], 149 nM; in assay [4] it was 59 nM; in assay [5], 2.6 nM. Also, the Ratio IC50 in the assay listed under Homo sapiens [6] and in the assay filed under Homo sapiens [7] was 5 throughout.
For the compound `Cc1nnc(NS(=O)(=O)c2ccc(NCc3cc(C(=O)O)cc(-c4ccc5c(c4)OCO5)c3)cc2)s1`, the IC50 in assay [1] worked out at 39.8 nM; in assay [3], 501 nM; in assay [4] it was 199 nM; in assay [5], 4 nM. The Ratio IC50 in the assay listed under Homo sapiens [6] and in the assay filed under Homo sapiens [7] was 5 each time.
For the compound `COc1ccc(-c2cc(CNc3ccc(S(=O)(=O)Nc4nnc(C)s4)cc3)cc(C(=O)NCCC(C)C)c2)cn1`, the IC50 is 9.6 nM in assay [1]; 11 nM in assay [2]; 398 nM in assay [3]; 4 nM in assay [4]; 10 nM in assay [5].
With `COc1ccc(-c2cc(CNc3ccc(S(=O)(=O)Nc4nnc(C)s4)cc3)cc(C(=O)NCCc3ccccc3F)c2)cn1`, the IC50 in assay [1] is 6.5 nM; in assay [2] it was 13 nM; in assay [3], 700 nM; in assay [4], 10 nM; in assay [5], 4.4 nM.
For the compound `COC(=O)c1cc(I)cc(CNc2ccc(S(=O)(=O)Nc3nnc(C)s3)cc2)c1`, the IC50 in assay [1] is > 25000 nM; in assay [2], 13000 nM.
With `COc1ccc(-c2cc(CNc3ccc(S(=O)(=O)Nc4nnc(C)s4)cc3)cc(C(=O)NC(CO)CO)c2)cn1`, the IC50 is 16 nM in assay [1]; 16 nM in assay [2]; 790 nM in assay [3]; 20 nM in assay [4]; 25 nM in assay [5].
In the case of `COc1ccc(-c2cc(CNc3ccc(S(=O)(=O)N(C)c4nnc(C)s4)cc3)cc(C(=O)NCCc3ccccc3F)c2)cn1`, the IC50 in assay [1] is 2000 nM; in assay [2], > 10000 nM; in assay [3], > 10000 nM; in assay [4] it was 2000 nM; in assay [5] it was > 10000 nM.
